Numbers after ± are expanded uncertainties.
Conditions: 101.33 kPa, Liquid, Vibrating tube method

| mass density (288.15 K) | mass density (298.15 K) | mass density (313.15 K) | mass density (328.15 K) | mass density (338.15 K) | mass density (348.15 K) | SMILES |
| --- | --- | --- | --- | --- | --- | --- |
| 806.121 ± 0.14 kg/m3 | 798.409 ± 0.14 kg/m3 | 786.515 ± 0.15 kg/m3 | 774.113 ± 0.15 kg/m3 | 765.452 ± 0.15 kg/m3 | 756.435 ± 0.16 kg/m3 | CC(C)CO [2-methyl-1-propanol] |
| 813.604 ± 0.11 kg/m3 | 805.984 ± 0.11 kg/m3 | 794.34 ± 0.12 kg/m3 | 782.323 ± 0.12 kg/m3 | 774.032 ± 0.13 kg/m3 | 765.48 ± 0.13 kg/m3 | CCCCO [butan-1-ol] |
| 1060.33 ± 0.061 kg/m3 | 1049.6 ± 0.057 kg/m3 | 1033.5 ± 0.051 kg/m3 | 1017.34 ± 0.045 kg/m3 | 1006.5 ± 0.042 kg/m3 | 995.631 ± 0.041 kg/m3 | CCOC(=O)CC(=O)OCC [diethyl 1,3-propanedioate] |
| 906.547 ± 0.11 kg/m3 | 894.381 ± 0.12 kg/m3 | 875.812 ± 0.12 kg/m3 | 856.813 ± 0.13 kg/m3 | 843.858 ± 0.13 kg/m3 | 830.622 ± 0.14 kg/m3 | CCOC(C)=O [ethyl acetate] |
| 688.254 ± 0.25 kg/m3 | 679.787 ± 0.25 kg/m3 | 666.893 ± 0.25 kg/m3 | 653.72 ± 0.26 kg/m3 | 644.767 ± 0.26 kg/m3 | 635.631 ± 0.26 kg/m3 | CCCCCCC [heptane] |
| 819.154 ± 0.14 kg/m3 | 811.8 ± 0.14 kg/m3 | 800.574 ± 0.14 kg/m3 | 789.007 ± 0.15 kg/m3 | 781.05 ± 0.15 kg/m3 | 772.873 ± 0.15 kg/m3 | CCCCCO [pentan-1-ol] |

Reference: the NIST ThermoML archive (doi:10.1016/j.fluid.2009.11.030)
